From US9850283B2, “Macrocyclic inhibitors of the PD-1/PD-L1 and CD80(B7-1)/PD-L1 protein/protein interactions” (BRISTOL-MYERS SQUIBB COMPANY, priority 2013, dated 2017)
Like-named read-outs stand apart in the source and are kept apart here. Starred links: 1 amine or outer side, 2 acyl side, 3 side chain; linkers in the order of their positions; H or OH if unused. Positions of bridges follow the written chain, without caps; N, C: chain ends. Non-standard residues stand in square brackets, D forms with d. Residues, ends and D or L forms follow the SMILES beside them. ξ: configuration not given here. X3 = O=C([C@@H]1C[C@@H](Cc2ccc(F)cc2)CN1[*:1])[*:2]; 3Thi = N[C@@H](Cc1ccsc1)C(=O)O; dNMeNle = CCCC[C@@H](NC)C(=O)O; NMeNle = CCCC[C@H](NC)C(=O)O; NMeA = CN[C@@H](C)C(=O)O; Dab = NCC[C@H](N)C(=O)O; ξNMeA = CNC(C)C(=O)O; ξP = O=C(O)C1CCCN1; ξC = NC(CS)C(=O)O; Sar = CNCC(=O)O

Experiments:
Human PD-L1/PD-1 = target: T1, Human PD-L1/PD-1 (Homo sapiens, UniProt Q9NZQ7); assay: HTRF PD-1-Ig/PD-L1-His binding assay (human PD-L1)
T1 construct: made in house; host or cells: HEK293T
Summary of the method: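 Ig- and His-fused extracellular PD-1/PD-L1 binding in BSA/Tween-20 dPBS. HTRF with Eu anti-Ig (1 nM final) and APC anti-His (20 nM final).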

CMV-specific T cells = CMV-specific T cells (Homo sapiens, UniProt Q9NZQ7); assay: CMV-specific T cell function assay (IFNγ secretion, ELISA); type: cell-based
Method: CMV-specific T Cell Function Assay. […] AIM-V medium (Life Technologies, Grand Island, N.Y.) supplemented with 10% heat-inactivated fetal bovine serum (FBS, Sigma, St Louis, Mo.) was used at a total volume of 200 µL/well in triplicate. The cells were cultured for 4 days at 37° C., 5% CO2 at which time culture supernatant was harvested for determination of secreted IFNγ by ELISA (OptEIA hIFNγ ELISA Kit, BD Biosciences, San Jose, Calif.).

[1] = target: T2, LK35.2-hPD-L1 cells / PE-labeled PD-1-Ig (Homo sapiens, UniProt Q9NZQ7); assay: LK35.2-hPD-L1 cell binding high-content screening assay; type: cell-based; conditions: cell line of CBA not given (LK35.2-hPD-L1 or 293T-hPD-L1); read-out: CBA IC50 value
T2 construct: expressed in transfected cells; host or cells: LK35.2 mouse B cell line
Summary of the method: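 Mouse LK35.2 B cells stably over-expressing human PD-L1, cultured overnight, treated with compound plus PE-labeled human PD-1-Ig (1 nM final) in RPMI/10% FCS for 1 h at 37 °C. After washing, bound fluorescence quantified by high-content imaging.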

Hu PD-L1/PD-1 = Hu PD-L1/PD-1 (Homo sapiens, UniProt Q9NZQ7); assay: Cell binding assay Hu PD-L1/PD-1 (Tables 11-13, cell line not given); type: cell-based
Summary of the method: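 Three formats. In the L2987 imaging assay, natively PD-L1-expressing cells received inhibitor and PE-PD-1-Ig for 1 h at 37 °C, followed by fixation and nuclear Hoechst staining. In the flow-cytometry assays, LK35.2 cells overexpressing hPD-L1 were pre-treated 15 min with inhibitor, then bound 2 nM PE-PD-1-Ig for 1 h at RT in RPMI/2% FCS, while Jurkat-PD-1 cells bound PE-PD-L1-Ig.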

[2] = Table 8, Compound No. 1 variant macrocyclic peptides, read-out: HTRF Human PD-L1/PD-1 Binding Assay IC50

T1 sequence (Q9NZQ7 with tags, fused parts or gaps): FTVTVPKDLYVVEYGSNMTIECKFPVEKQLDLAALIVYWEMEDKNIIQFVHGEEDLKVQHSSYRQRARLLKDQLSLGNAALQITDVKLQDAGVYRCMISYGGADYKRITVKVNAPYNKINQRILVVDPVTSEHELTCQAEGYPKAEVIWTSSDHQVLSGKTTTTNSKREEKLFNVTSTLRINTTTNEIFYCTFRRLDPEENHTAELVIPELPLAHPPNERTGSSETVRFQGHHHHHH
Sequence of Hu PD-L1/PD-1 (Q9NZQ7 19-290): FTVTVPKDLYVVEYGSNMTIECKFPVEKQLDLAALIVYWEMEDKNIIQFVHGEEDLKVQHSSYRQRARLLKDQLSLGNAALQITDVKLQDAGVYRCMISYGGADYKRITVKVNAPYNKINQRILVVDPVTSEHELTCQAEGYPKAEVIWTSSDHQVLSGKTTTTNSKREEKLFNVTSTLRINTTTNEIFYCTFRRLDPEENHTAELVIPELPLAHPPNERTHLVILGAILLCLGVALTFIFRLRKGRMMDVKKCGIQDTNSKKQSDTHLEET
Sequence of CMV-specific T cells (Q9NZQ7 19-290): as above
T2 sequence (Q9NZQ7 19-290): as above

Row | SMILES | IC50 (Human PD-L1/PD-1; [2]) [nM] | IC50 (Hu PD-L1/PD-1) [nM] | other results
1 | CCCC[C@@H]1C(=O)N(C)[C@H](CCCC)C(=O)N[C@@H](C)C(=O)N[C@@H](C(=O)NCC(N)=O)CSCC(=O)N[C@@H](Cc2ccc(O)cc2)C(=O)N2CCCC2C(=O)N[C@H](CC(=O)O)C(=O)N2CCC[C@H]2C(=O)N[C@H](Cc2c[nH]cn2)C(=O)N[C@@H](CCC(=O)O)C(=O)N2CCCC2C(=O)N[C@H](Cc2c[nH]c3ccccc23)C(=O)N[C@@H](CCN)C(=O)N[C@@H](Cc2c[nH]c3ccccc23)C(=O)N1C (stereo partly drawn) [Example 1215] ({CH2CO}-Y[ξP][dD]P[dH]E[ξP][dW][Dab]W[dNMeNle][dNMeNle]A[dC]G-NH2; thioether N-14) | – | – | IC50 (Human PD-L1/PD-1; read-out: HTRF IC50 value): 50.9 nM; EC50 (CMV-specific T cells; read-out: CMV Recall EC50 value): 508 nM; IC50 [1]: 92.5 nM
2 | CCCC[C@H]1C(=O)N(C)[C@@H](CCCC)C(=O)N[C@@H](CCN)C(=O)N[C@H](C(=O)NCC(N)=O)CSCC(=O)N[C@@H](Cc2ccc(O)cc2)C(=O)N(C)[C@@H](C)C(=O)N[C@@H](CC(N)=O)C(=O)N2CCC[C@H]2C(=O)N[C@@H](Cc2c[nH]cn2)C(=O)N[C@@H](CCC(=O)O)C(=O)N2C[C@H](Cc3ccc(F)cc3)C[C@H]2C(=O)N[C@@H](Cc2c[nH]c3ccccc23)C(=O)N[C@@H](CCN)C(=O)N[C@@H](Cc2c[nH]c3ccccc23)C(=O)N1C [Example 13011] ({CH2CO}-Y[NMeA]NPHE[X3]W[Dab]W[NMeNle][NMeNle][Dab]CG-NH2; thioether N-14) | – | – | EC50 (CMV-specific T cells; numeric value, read-out: CMV Recall EC50 values): 38.3 nM
3 | CCCC[C@H]1C(=O)N(C)[C@@H](CCCC)C(=O)N[C@@H](CCCNC(=N)N)C(=O)N[C@H](C(=O)NCC(N)=O)CSCC(=O)N[C@@H](Cc2ccccc2)C(=O)N(C)C(C)C(=O)N[C@@H](CC(N)=O)C(=O)N2CCC[C@H]2C(=O)N[C@@H](Cc2cnc[nH]2)C(=O)N[C@@H](CC(C)C)C(=O)N[C@@H](Cc2cnc[nH]2)C(=O)N[C@@H](Cc2c[nH]c3ccccc23)C(=O)N[C@@H](CO)C(=O)N[C@@H](Cc2c[nH]c3ccccc23)C(=O)N1C (stereo partly drawn) [Compound No. 53] ({CH2CO}-F[ξNMeA]NPHLHWSW[NMeNle][NMeNle]RCG-NH2; thioether N-14) | 34 | 47 | –
4 | CCCC[C@H]1C(=O)N(C)CC(=O)N[C@@H](CC(=O)O)C(=O)N[C@@H](C(C)C)C(=O)N(C)[C@@H](C)C(=O)N[C@@H](Cc2ccc(O)cc2)C(=O)N(C)CC(=O)N[C@@H](Cc2c[nH]c3ccccc23)C(=O)N[C@@H](Cc2ccc(O)cc2)C(=O)N[C@@H](CC(C)C)C(=O)N[C@H](C(=O)NCC(N)=O)CSCC(=O)N[C@@H](Cc2ccccc2)C(=O)N(C)[C@@H](Cc2ccccc2)C(=O)N1C [Compound No. 81] (HELM PEPTIDE1{[O=C(C[*:3])[*:2]].F.[meF].[CCCC[C@@H](C(=O)[*:2])N(C)[*:1]].[Sar].D.V.[meA].Y.[Sar].W.Y.L.C.G.[am]}$PEPTIDE1,PEPTIDE1,1:R3-14:R3$$$V2.0) | – | – | IC50 (Human PD-L1/PD-1; Table 9, Compound No. 71 variant macrocyclic peptides, read-out: HTRF Human PD-L1/PD-1 Binding Assay IC50): > 10000 nM; IC50 (Hu PD-L1/PD-1; Table 13, Compound No. 71 series): > 10000 nM
5 | CCCC[C@H]1C(=O)N(C)[C@@H](CCCC)C(=O)N[C@@H](CCCNC(=N)N)C(=O)N[C@H](C(=O)NCC(N)=O)CSCC(=O)N[C@@H](Cc2ccccc2)C(=O)N(C)[C@@H](C)C(=O)N[C@@H](CC(N)=O)C(=O)N2CCCC2C(=O)N[C@@H](C)C(=O)N[C@@H](CC(C)C)C(=O)N(C)CC(=O)N[C@@H](Cc2c[nH]c3ccccc23)C(=O)N[C@@H](CO)C(=O)N[C@@H](Cc2c[nH]c3ccccc23)C(=O)N1C (stereo partly drawn) [Compound No. 10] ({CH2CO}-F[NMeA]N[ξP]AL[Sar]WSW[NMeNle][NMeNle]RCG-NH2; thioether N-14) | 16 | 82 | –
6 | CCCC[C@H]1C(=O)N(C)[C@@H](CCCC)C(=O)N[C@@H](CCCNC(=N)N)C(=O)NC(C(=O)NCC(N)=O)CSCC(=O)N[C@@H](Cc2ccsc2)C(=O)N(C)[C@@H](C)C(=O)N[C@@H](CC(N)=O)C(=O)N2CCC[C@H]2C(=O)N[C@@H](Cc2cnc[nH]2)C(=O)N[C@@H](CC(C)C)C(=O)N(C)CC(=O)N[C@@H](Cc2c[nH]c3ccccc23)C(=O)N[C@@H](CO)C(=O)N[C@@H](Cc2c[nH]c3ccccc23)C(=O)N1C (stereo partly drawn) [Compound No. 40] ({CH2CO}-[3Thi][NMeA]NPHL[Sar]WSW[NMeNle][NMeNle]R[ξC]G-NH2; thioether N-14) | 9 | 20 | –
